Values joined by “and” are separate entries in the source; they are usually repeats but may differ in a detail not shown here. Identical values can stand only once. Like-named read-outs stand apart in the source and are kept apart here.
Assays:
[1] = Bidirectional permeability measurement in Caco-2 cells; assay type: in vitro ADME; details: human
Method in brief: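 Compound quantified by LC-MS/MS in samples taken over up to 2 h across 14–21-day Caco-2 monolayers, after 24 h preincubation with 1 µM compound. Runs done without and with 5 µM zosuquidar to probe P-gp. Efflux ratio is the quotient of duplicate-mean Papp,BA over Papp,AB.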

VCB complex = target: T1, VCB complex (Homo sapiens, UniProt P40337); test: SPR binary binding to immobilised VCB complex
T1 construct: His6 (TEV site) (N, cleaved yes); made in house
Protocol: (§1) SMARCA4^BD was provided by the Structural Genomics Consortium (SGC), Toronto[32] and SMARCA2^BD and PRM1^BD5 were synthesised by GeneArt then subcloned into pDEST15 vectors (Invitrogen). The VCB complex was expressed and purified as described previously, with the modification that 0.3 mM IPTG was used for induction of expression. […] Both were stored in 20 mM 4-(2-hydroxyethyl)−1-piperazineethanesulfonic acid (HEPES), 150 mM sodium chloride and 1 mM tris(2-carboxyethyl)phosphine (TCEP) pH 7.5. SMARCA2^BD, SMARCA4^BD and PBRM1^BD5 were expressed in Escherichia coli BL21(DE3) as N-terminal GST fusion proteins with a TEV protease cleavage site. Expression and purification of these proteins has been described previously[32],[33]. Starter cultures were grown overnight at 37 °C in 10 mL of Luria-Bertani (LB) medium with ampicillin (100 μg/mL). The starter cultures were diluted (1:100) in Terrific Broth (TB) medium with ampicillin (100 μg/mL) and grown in a shaking incubator at 37 °C to an optical density (OD600) ~1 before the temperature was lowered for induction (to 23 °C for SMARCA2^BD or 18 °C for SMARCA4^BD and PRRM1^BD5). […] Cells were harvested by centrifugation and stored at −80 °C prior to purification. […] The Lysis buffers were as follows: for SMARCA2^BD: 50 mM HEPES, 500 mM sodium chloride, 5% glycerol, 5 mM dithiothreitol (DTT); for SMARCA4^BD: 25 mM HEPES, 0.3 M sodium chloride, 5% glycerol, 10 mM DTT, pH 7.5; for PBRM1^BD5: 25 mM HEPES, 300 mM sodium chloride, 5% glycerol, 10 mM DTT, pH 7.8; in each case supplemented with complete protease inhibitors (Roche). Affinity purification was performed using Glutathione Sepharose 4B (GE Healthcare) in batch mode or on-column. […] For SMARCA2^BD, prior to TEV protease cleavage the eluted GST-tagged BD was first dialysed into desalting buffer (20 mM HEPES, 250 mM sodium chloride, pH 7.0 + 0.5% glycerol). Where TEV cleavage was performed in solution, a second affinity (GST-trap) column purification step was carried out to remove the GST-tag and uncleaved GST-tagged protein. Proteins were further purified by SEC (HiLoad Superdex-75, 16/600) (GE Healthcare) and stored in Storage buffer (for SMARCA2^BD: 20 mM HEPES, 150 mM sodium chloride, pH 7.5; for SMARCA4^BD: 10 mM HEPES, 0.5 M NaCl, 5% glycerol, pH 7.5; for PBRM1^BD5: 20 mM HEPES, 300 mM NaCl, 5 mM DTT, pH 7.8). For AlphaScreen assays, eluted GST-tagged BDs were purified directly by SEC in the respective storage buffers without TEV cleavage. All chromatography purification steps were performed either at room temperature or 4 °C using an ÄKTA FPLC purification system (GE Healthcare) or a plastic Econo-Pac column (Bio-Rad).
(§2) SPR data were acquired on Biacore 8K or T200 instruments (Cytiva). Target proteins were immobilised at 25 °C on CM5 chips by amine coupling (EDC/NHS, Cytiva) in HBS-P+ running buffer (pH 7.4), containing 2 mM TCEP. […] The reference surface was subsequently deactivated using 1 M ethanolamine. […] Biotinylated VCB was prepared as previously described[27]: in brief, the complex was mixed 1:1 with EZ-Link NHS–PEG4–biotin (Thermo Scientific) and incubated at room temperature for 1 h. Unreacted NHS-biotin was removed using a PD-10 desalting column (Cytiva) into 20 mM HEPES, pH 7.5, 150 mM sodium chloride and 1 mM DTT. The reference surface was generated by deactivating the EDC/NHS-treated surface with 1 M ethanolamine. All interaction experiments were done at 6 °C in running buffer (20 mM TRIS, pH 8.3, 150 mM potassium chloride, 2 mM magnesium chloride, 2 mM TCEP, 0.005% TWEEN 20, 1% dimethyl sulfoxide). For ternary complex measurements, a sensor chip surface with VCB immobilised was used (preparation as described above). Experiments were run in dual-inject mode with 10 µM SMARCA present during the injection and dissociation phase. Sensorgrams from reference surfaces and blank injections were subtracted from the raw data prior to data analysis using Biacore Insight software.

SMARCA2^BD = target: T2, SMARCA2^BD (Homo sapiens, UniProt P51531); test: SPR binding to immobilised SMARCA2 bromodomain; details: SPR, read-out: SMARCA2 KD
T2 construct: P51531-2, residues 1373-1493 with additional N-terminal SM residues; GST (TEV site) (N, cleaved yes); made in house; host or cells: Escherichia coli BL21(DE3)
Protocol: as §1, §2

[2] = test system: VCB: PROTAC: SMARCA4^BD ternary complex; test: TR-FRET ternary complex affinity and cooperativity, SMARCA4; assay type: binding, human; details: ratio TR-FRET EC50 / TR-FRET EC50 +VCB measured in the same run, SMARCA4BD
[3] = Caco-2, pH 7.4, Caco-2, b to a, read-out: Caco-2 Pba
[4] = Caco-2, pH 7.4, Caco-2, read-out: Caco-2 Pab
[5] = Caco-2, pH 7.4, Modified Caco-2, b to a, read-out: Modified Caco-2 Pba
[6] = Caco-2, pH 7.4, Modified Caco-2, read-out: Modified Caco-2 Efflux ratio
[7] = Caco-2, pH 7.4, Modified Caco-2, read-out: Modified Caco-2 Pab
[8] = binary binding to VCB, mean ± SD

T1 sequence (P40337 54-213): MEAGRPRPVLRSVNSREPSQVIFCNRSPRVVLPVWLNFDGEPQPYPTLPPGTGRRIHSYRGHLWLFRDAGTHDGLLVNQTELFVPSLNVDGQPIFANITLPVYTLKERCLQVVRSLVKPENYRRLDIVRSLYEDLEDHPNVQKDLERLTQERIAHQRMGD
T1 sequence (Q15369 17-112 partner limits assumed): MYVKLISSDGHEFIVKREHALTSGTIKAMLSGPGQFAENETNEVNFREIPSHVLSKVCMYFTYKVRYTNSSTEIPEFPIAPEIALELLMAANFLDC
T1 sequence (Q15370 1-104 partner limits assumed): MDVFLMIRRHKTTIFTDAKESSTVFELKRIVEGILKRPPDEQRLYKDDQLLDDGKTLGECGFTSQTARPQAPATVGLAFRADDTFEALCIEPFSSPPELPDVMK
T2 sequence (P51531 1373-1493 isoform P51531-2): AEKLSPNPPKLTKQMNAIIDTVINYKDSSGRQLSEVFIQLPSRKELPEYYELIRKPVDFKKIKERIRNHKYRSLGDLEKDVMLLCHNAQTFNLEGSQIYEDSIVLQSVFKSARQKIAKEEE

Compound | Papp B→A at 1 µM [1, 3] | Papp A→B at 1 µM [1, 4] | Papp B→A at 1 µM [1, 5] | efflux ratio at 2 h, 1 µM [1, 6] | Papp A→B at 1 µM [1, 7] | Kd (VCB complex; [8]) | Kd (VCB complex; binary, individual replicates) | Kd (SMARCA2^BD; SMARCA2BD, mean ± SD) | Kd (SMARCA2^BD; individual replicates) | cooperativity α (SMARCA4BD) [2] | efflux ratio at 2 h, 1 µM ([1]; Caco-2, pH 7.4, Caco-2, read-out: Caco-2 Efflux ratio)
Cc1ncsc1-c1ccc([C@H](COC(C)CN2CCC(c3ccc4c(c3)n(C3CCCC3)c3nc(=O)c5c(Br)cccc5n43)CC2)NC(=O)[C@@H]2C[C@@H](O)CN2C(=O)[C@@H](NC(=O)C2(F)CC2)C(C)(C)C)cc1 (stereo partly drawn) [compound 9] | 34 ×10⁻⁶ cm/s | 6 ± 2 ×10⁻⁶ cm/s | 170 ×10⁻⁶ cm/s | 44.8 | 4 ± 2 ×10⁻⁶ cm/s | 34 ± 6 nM | 39.9 nM and 37.9 nM and 30.4 nM and 26.2 nM | 263 ± 9 nM | 260 nM and 273 nM and 257 nM | 2.2 ± 0.2 | –
Cc1ncsc1-c1ccc([C@H](COCCN2CCC(c3ccc4c(c3)n(C3CCCC3)c3nc(=O)c5c(Br)cccc5n43)CC2)NC(=O)[C@@H]2C[C@@H](O)CN2C(=O)[C@@H](NC(=O)C2(N(C)C)CC2)C(C)(C)C)cc1 [compound 26] | 15.4 ×10⁻⁶ cm/s | < 3 ×10⁻⁶ cm/s | – | – | – | 76 ± 46 nM | 55.5 nM and 144 nM and 50.1 nM and 53.4 nM | 118 ± 5 nM | 119 nM and 123 nM and 113 nM | 2.6 ± 0.7 | –
Cc1ncsc1-c1ccc([C@H](COC(C)CN2CCC(c3ccc4c(c3)n(C3CCCC3)c3nc(=O)c5c(Br)cccc5n43)CC2)NC(=O)[C@@H]2C[C@@H](O)CN2C(=O)[C@@H](NC(=O)C2(N(C)C)CC2)C(C)(C)C)cc1 (stereo partly drawn) [compound 10] | 26 ×10⁻⁶ cm/s | – | 69 ×10⁻⁶ cm/s | 36.3 | < 1 ×10⁻⁶ cm/s | 124 ± 97 nM | 76.7 nM and 269 nM and 65.4 nM and 86 nM | 222 ± 6 nM | 228 nM and 218 nM and 219 nM | 2.6 ± 0.8 | 4.64
